Test results taken from publication PMC9532562 (Acta Pharmaceutica Sinica. B, 2022).

Columns and labels:
[1] = molecular target: HDAC4 (Homo sapiens, UniProt P56524); test: HDAC enzyme inhibition assay; type: biochemical
[2] = molecular target: T1, CYP1A2 (Homo sapiens, UniProt P05177); test: CYP inhibition assay, pooled human liver microsomes; type: in vitro ADME; conditions: probe phenacetin
T1 sequence (P05177 1-516): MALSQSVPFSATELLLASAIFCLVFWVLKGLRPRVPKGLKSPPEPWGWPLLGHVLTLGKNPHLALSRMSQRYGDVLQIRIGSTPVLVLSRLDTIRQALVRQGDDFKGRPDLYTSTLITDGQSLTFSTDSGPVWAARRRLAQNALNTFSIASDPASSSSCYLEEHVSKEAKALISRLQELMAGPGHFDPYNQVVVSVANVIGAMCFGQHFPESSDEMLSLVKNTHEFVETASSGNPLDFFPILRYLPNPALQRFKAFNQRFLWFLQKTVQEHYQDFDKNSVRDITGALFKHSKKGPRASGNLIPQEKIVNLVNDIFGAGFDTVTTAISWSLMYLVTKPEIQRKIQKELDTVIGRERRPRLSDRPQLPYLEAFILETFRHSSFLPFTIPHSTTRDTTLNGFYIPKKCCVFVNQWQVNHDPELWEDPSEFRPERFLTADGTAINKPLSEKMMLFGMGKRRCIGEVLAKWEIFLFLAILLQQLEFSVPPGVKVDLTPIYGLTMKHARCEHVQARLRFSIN

[3] = molecular target: CYP3A4 (Homo sapiens, UniProt P08684); test: as above; type: in vitro ADME; conditions: probe testosterone
[4] = molecular target: CYP2D6 (Homo sapiens, UniProt P10635); test: as above; type: in vitro ADME; conditions: probe dextromethorphan
[5] = Plasma protein binding; type: in vitro ADME; conditions: human
[6] = molecular target: T2, HDAC8 (Homo sapiens, UniProt Q9BY41); test: HDAC enzyme inhibition assay; type: biochemical
T2 sequence (Q9BY41 1-377): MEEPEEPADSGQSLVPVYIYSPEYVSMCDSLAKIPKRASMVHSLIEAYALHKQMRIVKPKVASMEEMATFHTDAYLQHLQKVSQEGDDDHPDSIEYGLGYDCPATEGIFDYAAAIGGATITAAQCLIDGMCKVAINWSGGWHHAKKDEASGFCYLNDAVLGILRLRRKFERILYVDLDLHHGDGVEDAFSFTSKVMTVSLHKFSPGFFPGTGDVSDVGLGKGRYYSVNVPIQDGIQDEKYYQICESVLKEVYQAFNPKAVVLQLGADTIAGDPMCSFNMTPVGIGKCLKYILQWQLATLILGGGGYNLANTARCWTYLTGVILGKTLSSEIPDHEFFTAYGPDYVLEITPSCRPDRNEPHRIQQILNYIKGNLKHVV

[7] = molecular target: T3, HDAC7 (Homo sapiens, UniProt Q8WUI4); test: HDAC enzyme inhibition assay; type: biochemical
T3 sequence (Q8WUI4 1-952): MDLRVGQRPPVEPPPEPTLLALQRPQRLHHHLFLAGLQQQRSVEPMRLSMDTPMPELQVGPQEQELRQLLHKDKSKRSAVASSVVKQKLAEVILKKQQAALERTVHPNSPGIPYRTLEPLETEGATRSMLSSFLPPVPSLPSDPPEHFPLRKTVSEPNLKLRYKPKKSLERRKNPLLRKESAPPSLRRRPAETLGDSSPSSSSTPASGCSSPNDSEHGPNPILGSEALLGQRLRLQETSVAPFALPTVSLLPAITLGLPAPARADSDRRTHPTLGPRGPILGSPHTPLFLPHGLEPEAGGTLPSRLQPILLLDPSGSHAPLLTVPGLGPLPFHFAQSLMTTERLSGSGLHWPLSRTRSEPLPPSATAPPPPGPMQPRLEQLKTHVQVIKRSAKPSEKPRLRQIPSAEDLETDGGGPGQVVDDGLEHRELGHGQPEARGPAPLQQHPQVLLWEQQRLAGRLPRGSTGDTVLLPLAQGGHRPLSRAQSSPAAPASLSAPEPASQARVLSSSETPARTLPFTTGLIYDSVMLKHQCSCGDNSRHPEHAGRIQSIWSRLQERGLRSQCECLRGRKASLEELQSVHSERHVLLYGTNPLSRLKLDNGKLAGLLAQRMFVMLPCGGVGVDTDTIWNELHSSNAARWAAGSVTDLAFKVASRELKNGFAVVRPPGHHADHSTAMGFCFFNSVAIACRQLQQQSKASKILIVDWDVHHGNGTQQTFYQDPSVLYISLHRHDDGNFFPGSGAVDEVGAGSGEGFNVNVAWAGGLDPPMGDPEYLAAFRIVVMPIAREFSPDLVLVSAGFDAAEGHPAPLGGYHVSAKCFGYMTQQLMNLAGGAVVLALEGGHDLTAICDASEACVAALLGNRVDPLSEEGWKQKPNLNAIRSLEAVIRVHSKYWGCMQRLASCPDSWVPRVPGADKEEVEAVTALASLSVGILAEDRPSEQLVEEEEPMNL

[8] = molecular target: HDAC1 (Homo sapiens, UniProt Q13547); test: HDAC enzyme inhibition assay; type: biochemical
[9] = molecular target: CYP2C9 (Homo sapiens, UniProt P11712); test: CYP inhibition assay, pooled human liver microsomes; type: in vitro ADME; conditions: probe diclofenac
[10] = LogD determination, shake flask method; type: physicochemical; conditions: n-octanol/PBS, pH 7.4
[11] = molecular target: HDAC9 (Homo sapiens, UniProt Q9UKV0); test: HDAC enzyme inhibition assay; type: biochemical
[12] = In vivo brain/plasma PK studies; design: species or system C57BL/6 mice; conditions: C57BL/6, mouse, ip, 1 mg/kg
[13] = molecular target: T4, HDAC11 (Homo sapiens, UniProt Q96DB2); test: HDAC enzyme inhibition assay; type: biochemical
T4 sequence (Q96DB2 1-347): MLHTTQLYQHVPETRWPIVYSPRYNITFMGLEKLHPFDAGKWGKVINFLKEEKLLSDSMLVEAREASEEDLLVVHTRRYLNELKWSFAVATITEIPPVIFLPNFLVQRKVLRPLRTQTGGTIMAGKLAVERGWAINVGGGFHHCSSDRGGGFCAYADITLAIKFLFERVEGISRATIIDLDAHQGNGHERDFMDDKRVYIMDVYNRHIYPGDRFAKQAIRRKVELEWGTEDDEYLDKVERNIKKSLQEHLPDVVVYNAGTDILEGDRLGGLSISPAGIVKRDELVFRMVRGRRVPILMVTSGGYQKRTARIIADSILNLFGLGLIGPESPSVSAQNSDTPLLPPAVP

[14] = molecular target: HDAC5 (Homo sapiens, UniProt Q9UQL6); test: HDAC enzyme inhibition assay; type: biochemical
[15] = molecular target: T5, HDAC6 (Homo sapiens, UniProt Q9UBN7); test: HDAC enzyme inhibition assay; type: biochemical
T5 sequence (Q9UBN7 1-1215): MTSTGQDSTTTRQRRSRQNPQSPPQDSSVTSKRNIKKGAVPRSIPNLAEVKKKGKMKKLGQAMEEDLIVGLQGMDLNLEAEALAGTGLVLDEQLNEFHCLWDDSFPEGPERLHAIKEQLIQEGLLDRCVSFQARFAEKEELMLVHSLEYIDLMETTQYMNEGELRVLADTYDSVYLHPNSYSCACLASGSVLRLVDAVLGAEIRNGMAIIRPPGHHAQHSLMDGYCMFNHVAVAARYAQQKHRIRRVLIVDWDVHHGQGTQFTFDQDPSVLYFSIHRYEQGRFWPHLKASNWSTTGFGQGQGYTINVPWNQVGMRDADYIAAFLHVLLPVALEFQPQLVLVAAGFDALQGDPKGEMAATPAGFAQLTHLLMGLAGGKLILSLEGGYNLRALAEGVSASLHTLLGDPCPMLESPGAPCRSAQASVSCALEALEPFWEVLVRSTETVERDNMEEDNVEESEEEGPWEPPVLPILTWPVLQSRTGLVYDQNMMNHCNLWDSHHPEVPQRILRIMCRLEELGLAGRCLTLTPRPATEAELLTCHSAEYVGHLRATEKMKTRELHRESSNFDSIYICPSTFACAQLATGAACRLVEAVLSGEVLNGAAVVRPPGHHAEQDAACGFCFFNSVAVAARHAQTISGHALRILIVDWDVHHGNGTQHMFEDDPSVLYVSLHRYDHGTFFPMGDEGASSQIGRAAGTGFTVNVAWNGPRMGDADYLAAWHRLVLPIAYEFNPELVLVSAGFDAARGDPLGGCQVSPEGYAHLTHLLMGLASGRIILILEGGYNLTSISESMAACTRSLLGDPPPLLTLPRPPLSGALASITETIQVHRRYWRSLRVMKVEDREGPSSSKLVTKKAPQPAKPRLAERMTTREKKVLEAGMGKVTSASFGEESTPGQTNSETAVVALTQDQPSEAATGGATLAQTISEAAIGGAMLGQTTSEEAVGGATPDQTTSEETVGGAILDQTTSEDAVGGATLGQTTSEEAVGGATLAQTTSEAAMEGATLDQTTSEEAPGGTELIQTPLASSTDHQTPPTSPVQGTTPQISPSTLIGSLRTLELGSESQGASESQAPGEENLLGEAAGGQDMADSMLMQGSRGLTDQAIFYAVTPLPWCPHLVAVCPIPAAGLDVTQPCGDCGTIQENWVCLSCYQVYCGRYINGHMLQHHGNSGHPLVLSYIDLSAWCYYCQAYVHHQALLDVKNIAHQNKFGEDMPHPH

[16] = molecular target: T6, HDAC10 (Homo sapiens, UniProt Q969S8); test: HDAC enzyme inhibition assay; type: biochemical
T6 sequence (Q969S8 1-669): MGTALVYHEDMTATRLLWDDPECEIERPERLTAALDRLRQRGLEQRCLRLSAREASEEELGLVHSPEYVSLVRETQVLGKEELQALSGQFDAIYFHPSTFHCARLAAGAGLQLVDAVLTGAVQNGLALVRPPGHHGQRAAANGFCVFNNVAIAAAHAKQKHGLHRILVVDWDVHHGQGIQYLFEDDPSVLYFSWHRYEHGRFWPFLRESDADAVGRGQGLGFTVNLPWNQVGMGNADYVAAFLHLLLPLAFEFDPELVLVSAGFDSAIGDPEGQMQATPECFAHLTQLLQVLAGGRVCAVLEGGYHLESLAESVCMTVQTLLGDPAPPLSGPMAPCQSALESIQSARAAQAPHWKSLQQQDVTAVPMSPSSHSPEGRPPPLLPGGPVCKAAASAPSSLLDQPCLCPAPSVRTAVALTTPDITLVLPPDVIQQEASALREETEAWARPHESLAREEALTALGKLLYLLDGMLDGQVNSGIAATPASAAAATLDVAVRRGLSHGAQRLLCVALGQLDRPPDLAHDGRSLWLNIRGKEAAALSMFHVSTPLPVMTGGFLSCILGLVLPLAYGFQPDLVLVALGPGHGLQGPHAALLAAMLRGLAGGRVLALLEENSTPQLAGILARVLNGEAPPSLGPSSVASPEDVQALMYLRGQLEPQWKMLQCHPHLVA

[17] = molecular target: HDAC2 (Homo sapiens, UniProt Q92769); test: HDAC enzyme inhibition assay; type: biochemical
[18] = Hepatocyte stability; type: in vitro ADME; conditions: human, hepatocytes
[19] = molecular target: CYP2C19 (Homo sapiens, UniProt P33261); test: CYP inhibition assay, pooled human liver microsomes; type: in vitro ADME; conditions: probe S-mephenytoin
[20] = molecular target: HDAC3 (Homo sapiens, UniProt O15379); test: HDAC enzyme inhibition assay; type: biochemical
Sequence of HDAC3 (O15379 whole entry): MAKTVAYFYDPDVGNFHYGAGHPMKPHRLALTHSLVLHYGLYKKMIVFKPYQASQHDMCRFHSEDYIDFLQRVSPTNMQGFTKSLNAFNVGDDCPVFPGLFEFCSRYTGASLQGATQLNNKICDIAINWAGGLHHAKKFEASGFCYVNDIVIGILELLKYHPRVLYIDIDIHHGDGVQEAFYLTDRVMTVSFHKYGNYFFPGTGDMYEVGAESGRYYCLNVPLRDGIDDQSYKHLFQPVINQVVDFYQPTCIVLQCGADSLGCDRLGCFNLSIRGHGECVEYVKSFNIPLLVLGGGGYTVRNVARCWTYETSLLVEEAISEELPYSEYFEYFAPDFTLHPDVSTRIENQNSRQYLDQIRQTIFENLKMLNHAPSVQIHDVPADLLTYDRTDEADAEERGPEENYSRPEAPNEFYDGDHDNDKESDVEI
Sequence of HDAC3 (Q9Y618 395-489 partner limits assumed): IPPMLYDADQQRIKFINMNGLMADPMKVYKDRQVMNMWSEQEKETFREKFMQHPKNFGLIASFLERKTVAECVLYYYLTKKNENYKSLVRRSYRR

Sequence of HDAC4 (P56524 whole entry): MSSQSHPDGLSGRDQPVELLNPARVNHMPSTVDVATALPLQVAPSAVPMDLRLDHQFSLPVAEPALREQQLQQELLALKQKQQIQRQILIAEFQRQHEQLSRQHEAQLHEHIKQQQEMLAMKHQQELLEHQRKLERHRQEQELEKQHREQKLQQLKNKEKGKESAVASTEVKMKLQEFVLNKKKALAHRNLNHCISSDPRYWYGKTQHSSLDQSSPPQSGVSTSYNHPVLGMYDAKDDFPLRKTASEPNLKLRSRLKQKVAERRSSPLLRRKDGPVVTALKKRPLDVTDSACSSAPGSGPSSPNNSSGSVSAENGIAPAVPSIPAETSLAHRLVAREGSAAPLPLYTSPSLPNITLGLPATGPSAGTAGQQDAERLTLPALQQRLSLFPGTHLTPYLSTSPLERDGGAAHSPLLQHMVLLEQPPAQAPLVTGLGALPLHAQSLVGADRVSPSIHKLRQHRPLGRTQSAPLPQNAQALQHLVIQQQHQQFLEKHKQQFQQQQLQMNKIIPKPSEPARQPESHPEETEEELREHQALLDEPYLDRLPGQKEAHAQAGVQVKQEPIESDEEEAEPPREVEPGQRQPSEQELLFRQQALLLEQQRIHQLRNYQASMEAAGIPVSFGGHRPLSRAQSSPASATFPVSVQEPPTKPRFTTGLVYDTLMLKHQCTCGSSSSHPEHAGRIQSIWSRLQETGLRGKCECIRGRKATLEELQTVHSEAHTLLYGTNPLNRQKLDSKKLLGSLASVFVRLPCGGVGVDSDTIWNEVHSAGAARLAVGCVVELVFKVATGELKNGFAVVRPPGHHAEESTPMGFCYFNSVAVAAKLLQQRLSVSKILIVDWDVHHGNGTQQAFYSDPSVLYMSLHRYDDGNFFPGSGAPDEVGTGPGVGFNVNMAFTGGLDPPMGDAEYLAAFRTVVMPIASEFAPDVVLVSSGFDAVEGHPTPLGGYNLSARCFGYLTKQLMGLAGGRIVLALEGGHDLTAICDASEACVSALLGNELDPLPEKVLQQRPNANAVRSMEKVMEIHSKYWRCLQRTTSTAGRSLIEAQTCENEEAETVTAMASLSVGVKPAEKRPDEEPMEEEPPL
Sequence of HDAC5 (Q9UQL6 whole entry): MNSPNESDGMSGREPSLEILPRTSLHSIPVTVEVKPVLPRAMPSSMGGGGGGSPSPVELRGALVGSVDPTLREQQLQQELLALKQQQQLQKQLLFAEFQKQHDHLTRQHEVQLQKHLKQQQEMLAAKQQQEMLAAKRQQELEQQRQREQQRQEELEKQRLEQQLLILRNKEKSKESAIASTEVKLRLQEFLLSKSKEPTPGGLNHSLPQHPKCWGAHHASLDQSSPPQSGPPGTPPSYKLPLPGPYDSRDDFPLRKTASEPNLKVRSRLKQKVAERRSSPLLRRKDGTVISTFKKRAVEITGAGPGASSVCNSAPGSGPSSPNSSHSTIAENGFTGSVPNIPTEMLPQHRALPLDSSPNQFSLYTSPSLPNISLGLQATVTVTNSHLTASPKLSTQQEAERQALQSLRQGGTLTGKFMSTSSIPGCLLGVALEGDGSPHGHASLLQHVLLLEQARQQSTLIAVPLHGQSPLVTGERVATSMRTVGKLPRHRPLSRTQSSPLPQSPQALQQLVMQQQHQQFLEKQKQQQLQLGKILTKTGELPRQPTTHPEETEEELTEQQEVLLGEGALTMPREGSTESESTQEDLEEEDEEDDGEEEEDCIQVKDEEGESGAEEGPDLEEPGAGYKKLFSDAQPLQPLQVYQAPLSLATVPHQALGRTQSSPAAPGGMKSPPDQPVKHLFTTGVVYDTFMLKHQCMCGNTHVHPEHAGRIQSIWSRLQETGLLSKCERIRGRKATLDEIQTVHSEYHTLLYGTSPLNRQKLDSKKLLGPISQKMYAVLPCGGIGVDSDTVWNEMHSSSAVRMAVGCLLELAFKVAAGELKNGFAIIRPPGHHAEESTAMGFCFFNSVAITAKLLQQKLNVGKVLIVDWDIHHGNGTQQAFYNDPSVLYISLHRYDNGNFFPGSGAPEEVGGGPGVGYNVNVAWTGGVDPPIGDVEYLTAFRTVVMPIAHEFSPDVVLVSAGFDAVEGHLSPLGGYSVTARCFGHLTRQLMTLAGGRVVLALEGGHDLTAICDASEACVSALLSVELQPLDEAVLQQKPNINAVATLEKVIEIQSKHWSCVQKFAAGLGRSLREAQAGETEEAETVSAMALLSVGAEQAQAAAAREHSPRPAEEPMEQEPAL
Sequence of HDAC1 (Q13547 whole entry): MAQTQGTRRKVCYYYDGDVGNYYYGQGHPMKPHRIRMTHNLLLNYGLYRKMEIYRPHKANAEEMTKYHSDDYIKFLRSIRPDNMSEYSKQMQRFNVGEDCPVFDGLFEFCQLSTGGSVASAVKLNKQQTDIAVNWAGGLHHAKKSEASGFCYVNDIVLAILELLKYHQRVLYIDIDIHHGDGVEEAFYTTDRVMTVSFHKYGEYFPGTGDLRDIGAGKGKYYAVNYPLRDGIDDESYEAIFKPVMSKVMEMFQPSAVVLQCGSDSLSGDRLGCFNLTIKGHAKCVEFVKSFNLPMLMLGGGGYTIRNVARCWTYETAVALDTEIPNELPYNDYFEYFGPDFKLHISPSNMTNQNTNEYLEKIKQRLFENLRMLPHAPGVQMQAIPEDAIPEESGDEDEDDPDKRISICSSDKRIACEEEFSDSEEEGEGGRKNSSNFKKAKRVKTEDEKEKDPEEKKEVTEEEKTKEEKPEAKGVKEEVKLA
Sequence of HDAC2 (Q92769 whole entry): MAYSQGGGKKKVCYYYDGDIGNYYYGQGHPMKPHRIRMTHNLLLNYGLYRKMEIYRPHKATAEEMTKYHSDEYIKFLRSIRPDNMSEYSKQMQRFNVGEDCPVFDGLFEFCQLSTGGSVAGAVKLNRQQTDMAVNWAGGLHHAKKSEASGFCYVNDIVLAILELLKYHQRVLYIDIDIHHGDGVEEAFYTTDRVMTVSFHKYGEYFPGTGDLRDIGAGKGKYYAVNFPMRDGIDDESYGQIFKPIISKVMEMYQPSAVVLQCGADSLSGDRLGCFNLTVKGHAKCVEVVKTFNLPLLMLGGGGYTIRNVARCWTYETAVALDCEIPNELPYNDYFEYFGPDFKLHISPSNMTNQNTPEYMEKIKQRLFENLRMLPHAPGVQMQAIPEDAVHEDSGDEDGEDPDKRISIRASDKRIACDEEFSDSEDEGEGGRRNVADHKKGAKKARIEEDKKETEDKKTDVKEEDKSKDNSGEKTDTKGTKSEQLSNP
Sequence of HDAC9 (Q9UKV0 whole entry): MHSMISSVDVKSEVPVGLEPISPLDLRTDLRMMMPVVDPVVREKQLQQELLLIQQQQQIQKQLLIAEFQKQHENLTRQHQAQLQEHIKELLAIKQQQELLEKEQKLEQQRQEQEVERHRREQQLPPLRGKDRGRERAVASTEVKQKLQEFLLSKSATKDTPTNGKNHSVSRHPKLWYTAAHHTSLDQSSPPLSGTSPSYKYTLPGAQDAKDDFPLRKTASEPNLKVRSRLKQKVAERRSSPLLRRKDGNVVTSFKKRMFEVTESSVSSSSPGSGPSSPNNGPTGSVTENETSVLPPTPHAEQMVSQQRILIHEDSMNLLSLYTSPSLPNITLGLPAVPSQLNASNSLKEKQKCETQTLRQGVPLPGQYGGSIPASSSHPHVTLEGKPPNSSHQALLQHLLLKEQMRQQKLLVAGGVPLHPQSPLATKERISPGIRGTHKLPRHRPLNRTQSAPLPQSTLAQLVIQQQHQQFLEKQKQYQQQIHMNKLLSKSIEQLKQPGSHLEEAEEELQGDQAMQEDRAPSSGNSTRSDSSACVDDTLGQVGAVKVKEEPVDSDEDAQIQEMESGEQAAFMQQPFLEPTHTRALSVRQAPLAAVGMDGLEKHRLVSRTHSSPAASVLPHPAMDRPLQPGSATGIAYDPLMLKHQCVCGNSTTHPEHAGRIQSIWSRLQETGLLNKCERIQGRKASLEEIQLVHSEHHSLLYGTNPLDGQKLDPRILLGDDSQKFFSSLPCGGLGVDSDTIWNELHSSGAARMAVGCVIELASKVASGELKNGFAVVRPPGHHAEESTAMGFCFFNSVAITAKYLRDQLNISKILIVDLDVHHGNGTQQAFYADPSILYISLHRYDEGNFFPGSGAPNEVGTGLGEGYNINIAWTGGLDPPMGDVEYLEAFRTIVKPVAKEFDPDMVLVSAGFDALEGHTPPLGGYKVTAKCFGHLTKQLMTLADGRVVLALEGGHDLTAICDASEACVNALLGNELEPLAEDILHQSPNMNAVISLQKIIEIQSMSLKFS

Structure (SMILES) | IC50 [1] | IC50 [6] | IC50 [7] | IC50 [8] | IC50 [11] | IC50 [13] | IC50 [14] | IC50 [15] | IC50 [16] | IC50 [17] | IC50 [20] | other results
O=C(NO)c1ccc(CN2CCCCc3ccccc32)c(F)c1 [15c, 3-Fluoro-N-hydroxy-4-((2,3,4,5-tetrahydro-1H-benzo[b]azepin-1-yl)methyl)benzamide] | 2.12 µM | 1.68 µM | 0.609 µM | 7.82 µM | 3.15 µM | 4.38 µM | 2.44 µM | 0.0052 µM | 8.96 µM | > 10 µM | 2.96 µM | inhibition at 10 min, 10 μmol/L [2]: 36.8%; inhibition at 10 min, 10 μmol/L [3]: 89%; inhibition at 10 min, 10 μmol/L [4]: 36.3%; fraction unbound [5]: 0.006; inhibition at 10 min, 10 μmol/L [9]: 34.8%; logD at 1 h [10]: 3.4; Kp at 4 h ([12]; brain and plasma, Brain/plasma ratio, C57BL/6 mice, 4 h): 2.3; concentration at 0.5 h ([12]; brain): 48.5 ng/mL; concentration at 1 h ([12]; brain): 11.5 ng/mL; concentration at 4 h ([12]; brain): 0.82 ng/mL; concentration at 0.5 h ([12]; plasma): 1.32 ng/mL; concentration at 1 h ([12]; plasma): 0.72 ng/mL; concentration at 4 h ([12]; plasma): 0.35 ng/mL; selectivity for HDAC6 over other HDAC isoforms ([15]; HDAC6 vs other HDAC isoforms): > 119 fold; half-life at 5 μM [18]: 32.4 min; inhibition at 25 min, 10 μmol/L [19]: 54%
O=C(NO)c1ccc(CN2CCCCc3ccccc32)cc1F [15d, 2-Fluoro-N-hydroxy-4-((2,3,4,5-tetrahydro-1H-benzo[b]azepin-1-yl)methyl)benzamide] | 3.56 µM | 9.11 µM | 3.02 µM | > 10 µM | > 10 µM | 5.42 µM | > 10 µM | 0.0251 µM | > 10 µM | > 10 µM | 2.46 µM | 
COc1cc(C(=O)NO)ccc1CN1CCCCc2ccccc21 [15a, N-Hydroxy-3-methoxy-4-((2,3,4,5-tetrahydro-1H-benzo[b]azepin-1-yl)methyl)benzamide] | > 10 µM | > 10 µM | > 10 µM | > 10 µM | > 10 µM | 9.52 µM | > 10 µM | 6.46 µM | > 10 µM | > 10 µM | > 10 µM | 
COc1cc(CN2CCCCc3ccccc32)ccc1C(=O)NO [15b, N-Hydroxy2-methoxy-4-((2,3,4,5-tetrahydro-1H-benzo[b]azepin-1-yl)methyl)benzamide] | > 10 µM | 2.06 µM |  | > 10 µM | > 10 µM | 3.52 µM | > 10 µM | 4.16 µM | > 10 µM | > 10 µM | > 10 µM | 
